From the NIST ThermoML archive (doi:10.1021/je060228n)

Assays:
[1] = refractive index (Na D-line) (dimensionless); xn = mol fraction of the nth substance listed; conditions: 298.15 K, 101 kPa, Liquid
[2] = xn = mol fraction of the nth substance listed; conditions: 101 kPa, Liquid
[3] = refractive index (Na D-line) (dimensionless); conditions: 101.33 kPa, Liquid
[4] = for surface tension liquid-gas: Drop weight; for mass density / speed of sound / viscosity: Liquid

CCOS(=O)(=O)[O-].CCn1cc[n+](C)c1 [1-ethyl-3-methylimidazolium ethyl sulfate] + O
[1]
Conditions | refractive index
x2 = 0 | 1.4794
x2 = 0.0715 | 1.47827
x2 = 0.2089 | 1.476
x2 = 0.3227 | 1.47344
x2 = 0.5041 | 1.46726
x2 = 0.5975 | 1.46243
x2 = 0.7441 | 1.44916
x2 = 0.854 | 1.42825
x2 = 0.9506 | 1.38383

[2]
Conditions | mass density, 298.15 K [kg/m3] | mass density, 313.15 K [kg/m3] | mass density, 328.15 K [kg/m3] | speed of sound, 298.15 K [m/s] | speed of sound, 313.15 K [m/s] | speed of sound, 328.15 K [m/s] | viscosity, 298.15 K [mPa·s] | viscosity, 313.15 K [mPa·s] | viscosity, 328.15 K [mPa·s]
x2 = 0 | 1237.63 | 1227.51 | 1217.47 | 1679.1 | 1641.6 | 1604.5 | 97.58 | 50.01 | 29.18
x2 = 0.0715 | 1236.14 | 1225.97 | 1215.87 | 1687 | 1640.1 | 1617.1 | 82.01 | 43.36 | 25.8
x2 = 0.2089 | 1232.72 | 1222.53 | 1212.4 | 1696.7 | 1660.8 | 1622.1 | 57.84 | 32.09 | 19.82
x2 = 0.3227 | 1229 | 1218.87 | 1208.82 | 1707.2 | 1671 | 1631.7 | 42.89 | 24.76 | 15.8
x2 = 0.5041 | 1220 | 1209.82 | 1199.54 | 1729 | 1692.6 | 1652.9 | 24.74 | 15.11 | 10.02
x2 = 0.5975 | 1212.9 | 1202.43 | 1192.02 | 1741.6 | 1703.9 | 1665.9 | 17.52 | 10.98 | 7.45
x2 = 0.7441 | 1192.2 | 1181.55 | 1170.8 | 1773 | 1734.5 | 1695.3 | 10.58 | 6.715 | 4.622
x2 = 0.854 | 1159.2 | 1146.19 | 1135.3 | 1792.6 | 1749.2 | 1704.3 | 5.848 | 3.818 | 2.596
x2 = 0.9506 | 1084.4 | 1076.1 | 1066.9 | 1709.2 | 1693.1 | 1668.1 | 2.316 | 1.608 | 1.189

CCOS(=O)(=O)[O-].CCn1cc[n+](C)c1 [1-ethyl-3-methylimidazolium ethyl sulfate]
Conditions | refractive index, [3] | surface tension liquid-gas, [4] [mN/m]
288.15 K | 1.48197 | 47.91
293.15 K | 1.48072 | 47.39
298.15 K | 1.4794 | 46.96
303.15 K | 1.47803 | 46.58
308.15 K | 1.47669 | 46.23
313.15 K | 1.47535 | 45.84
318.15 K | 1.47397 | –
323.15 K | 1.47259 | –
328.15 K | 1.47124 | –
333.15 K | 1.46989 | –
338.15 K | 1.46851 | –
343.15 K | 1.46718 | –

[4], 101.33 kPa
Conditions | mass density [kg/m3] | speed of sound [m/s] | viscosity [mPa·s]
288.15 K | 1244.46 | 1703.9 | –
293.15 K | 1241 | 1691.4 | –
298.15 K | 1237.63 | 1679 | 97.58
303.15 K | 1234.25 | 1666.6 | 76.67
308.15 K | 1230.88 | 1654 | 61.71
313.15 K | 1227.51 | 1641.6 | 50.01
318.15 K | 1224.15 | 1629.2 | 41.37
323.15 K | 1220.8 | 1616.8 | 34.46
328.15 K | 1217.47 | 1604.5 | 29.18
333.15 K | 1214.31 | 1591.3 | 24.96
338.15 K | 1210.82 | 1578.9 | 21.45
343.15 K | 1207.51 | 1566.4 | 18.72

CCO [ethanol] + CCOS(=O)(=O)[O-].CCn1cc[n+](C)c1
Conditions | refractive index
[1], x1 = 1 | 1.36023

[2], x1 = 1
Conditions | mass density [kg/m3] | speed of sound [m/s] | viscosity [mPa·s]
298.15 K | 785.46 | 1146.3 | 1.082
313.15 K | 772 | 1092.8 | 0.827
328.15 K | 758.6 | 1043.2 | 0.641

O [water] + CCOS(=O)(=O)[O-].CCn1cc[n+](C)c1
Conditions | refractive index
[1], x1 = 1 | 1.33251

[2], x1 = 1
Conditions | mass density [kg/m3] | speed of sound [m/s] | viscosity [mPa·s]
298.15 K | – | – | 0.89
313.15 K | – | – | 0.653
328.15 K | 985.7 | 1545.4 | 0.504

CCO [ethanol]
Conditions | refractive index
[3], 298.15 K | 1.36023

[4], 101 kPa
Conditions | mass density [kg/m3] | speed of sound [m/s] | viscosity [mPa·s]
298.15 K | 785.46 | 1146.3 | 1.082
313.15 K | 772 | 1092.8 | 0.827
328.15 K | 758.6 | 1043.2 | 0.641
